{"source": "patent US20050197366A1", "about": "“Antimicrobial composition containing N-(n-butyl)-1,2-benzisothiazolin-3-one” (priority 2004, published 2005)", "format_in_all_cases": "cell-based", "key": {"[1]": {"system": "Fusarium moniliforme (ATCC#58929)", "assay": "Microtiter plate synergy test (MIC, Kull synergy index), fungi, Potato Dextrose Broth", "details": "for MIC: Fusarium verticillioides, read-out: Alone ppm (MIC of compound acting alone)", "description": "(§1) One measure of synergism is the industrially accepted method described by Kull, F. C.; Eisman, P. C.; Sylwestrowicz, H. D. and Mayer, R. L., in Applied Microbiology 9:538-541 (1961), using the ratio determined by the formula: Qa/QA+Qb/QB=Synergy Index (“SI”) wherein: • QA=concentration of compound A (first component) in ppm, acting alone, which produced an end point (MIC of Compound A). • Qa=concentration of compound A in ppm, in the mixture, which produced an end point. • QB=concentration of compound B (second component) in ppm, acting alone, which produced an end point (MIC of Compound B). • Qb=concentration of compound B in ppm, in the mixture, which produced an end point.\n(§2) When the sum of Qa/QA and Qb/QB is greater than one, antagonism is indicated. […] The lower the SI, the greater the synergy shown by that particular mixture. The minimum inhibitory concentration (MIC) of an antimicrobial compound is the lowest concentration tested under a specific set of conditions that prevents the growth of added microorganisms.\n(§3) Synergy tests were conducted using standard microtiter plate assays (12 columns, 1-12×8 rows, A-H) with media designed for optimal growth of the test microorganism. Full-strength nutrient medium, Trypticase Soy Broth, TSB, for bacteria, or Potato Dextrose Broth, PDB, for fungi, was used for testing. Growth medium (160 μL) was dispensed into columns 2-6 and 8-12 of the plate. A total of 40 plates were made with each growth medium. Stock solutions of N-(n-butyl)-1,2-benzisothiazolin-3-one were made from DENSIL DG 20 (20% active ingredient (AI), n-BBIT, in propylene glycol, obtained from Avecia Inc.) at the following concentrations based on total product weight: 5000 ppm (0.2 g DENSIL DG 20 in 40 g growth medium), 4000 ppm, 3500 ppm, 3000 ppm, 2500 ppm, 2000 ppm, 1500 ppm, 1000 ppm and 900 ppm. Isothiazolone stock solutions were made as follows. KATHON LX (1.97% active, 3:1 CMI/MI mixture): active ingredient concentrations at 144 ppm, 36 ppm, 10 ppm, 5 ppm and 1 ppm. ROZONE 2000 (20% active, DCOIT): active ingredient concentrations at 144 ppm, 36 ppm, 10 ppm, 5 ppm and 1 ppm. ROCIMA 550 (9.5% active, MI): active ingredient concentrations at 4800 ppm, 2400 ppm, 900 ppm, 360 ppm and 180 ppm. DENSIL DG 20 stock solution was dispensed in each well of columns 1 and 7 of a microtiter plate, as described below:\n(§4) 5000 ppm of stock solution was tested against Ps. aeruginosa in 1A, 7A. The 900 ppm stock was not tested against this organism. A 40 μL aliquot was transferred from each well in column 1 to column 2 and serially diluted to column 5; the aliquots from column 5 was discarded. Column 6 was the control. The same procedure was repeated from column 7 to column 11, and the aliquots from column 11 discarded. At the end of this procedure, each well should contain 160 μL of solution.\n(§5) The isothiazolone stock solutions were added to various columns so that each well contained the desired concentration of the isothiazolone and the DENSIL DG20. The DENSIL DG20 alone as well as the isothiazolone alone were included as controls. An example of the combination of 11 ppm KATHON LX 1.5% (on an active ingredient basis) with DENSIL DG20 is shown below:\n(§6) DENSIL DG20 alone (columns 1-5); untreated control (column 6); combination evaluations (columns 7-11); KATHON LX 1.5% control (column 12). Inoculum (10 μL) was dispensed into each well from column 1-12. […] The MIC of each biocide was determined from the plates, and then SI was determined.\n(§7) The following Tables summarize data for combinations of n-BBIT with other isothiazolones (ITA), along with their synergy index (SI) and the ratio of n-BBIT:ITA. All amounts of n-BBIT and ITA are reported as ppm of active ingredient. Results for testing against various organisms are grouped with results against fungi (F) reported together, and then results against bacteria (B).\n(§8) Typical contact time for bacteria is 24-48 hours and 3-7 days for fungi. […]"}, "[2]": {"system": "Klebsiella pneumoniae (ATCC#13583)", "assay": "Microtiter plate synergy test (MIC, Kull synergy index), bacteria, Trypticase Soy Broth", "details": "for MIC: Klebsiella pneumoniae, read-out: Alone ppm (MIC of compound acting alone)", "description": "as §1, §2, §3, §4, §5, §6, §7, §8"}, "[3]": {"system": "Staphylococcus aureus (ATCC#6538)", "assay": "Microtiter plate synergy test (MIC, Kull synergy index), bacteria, Trypticase Soy Broth", "details": "S. aureus, ppm active ingredient; for MIC: Staphylococcus aureus, ATCC6538, read-out: Alone ppm (MIC of compound acting alone)", "description": "as §1, §2, §3, §4, §5, §6, §7, §8"}, "[4]": {"system": "Proteus mirabilis (ATCC#unknown)", "assay": "Microtiter plate synergy test (MIC, Kull synergy index), bacteria, Trypticase Soy Broth", "details": "P. mirabilis, contact time 48 hr, ppm active ingredient", "description": "as §1, §2, §3\n(§9) 5000 ppm of stock solution was tested against Ps. aeruginosa in 1A, 7A. The 900 ppm stock was not tested against this organism. […]\n(§10) DENSIL DG20 alone (columns 1-5); untreated control (column 6); combination evaluations (columns 7-11); KATHON LX 1.5% control (column 12). […] The MIC of each biocide was determined from the plates, and then SI was determined. […]"}, "[5]": {"system": "Aspergillus niger (ATCC#16404)", "assay": "Microtiter plate synergy test (MIC, Kull synergy index), fungi, Potato Dextrose Broth", "details": "for Alone ppm (MIC of compound acting alone): A. niger, ppm active ingredient", "description": "as §1, §2, §3, §4, §5, §6, §7, §8"}, "[6]": {"system": "Candida albicans (ATCC#10231)", "assay": "Microtiter plate synergy test (MIC, Kull synergy index), fungi, Potato Dextrose Broth", "description": "as §1, §2, §3, §4, §5\n(§11) DENSIL DG20 alone (columns 1-5); untreated control (column 6); combination evaluations (columns 7-11); KATHON LX 1.5% control (column 12). Inoculum (10 μL) was dispensed into each well from column 1-12. The plates were incubated (bacterial plates at 48 hrs., 30° C.; fungal plates at 7 days, 25° C.). The MIC of each biocide was determined from the plates, and then SI was determined.\nas §7, with “(B). […]” for “(B).”"}, "[7]": {"system": "Gliocladium viridie (Tricoderma viridie)(isolate)", "assay": "Microtiter plate synergy test (MIC, Kull synergy index), fungi, Potato Dextrose Broth", "details": "for MIC: read-out: Alone ppm (MIC of compound acting alone); for Alone ppm (MIC of compound acting alone): G. viridie, ppm active ingredient", "description": "as §1, §2, §3, §4, §5, §11\nas §7, with “(B). […]” for “(B).”"}, "[8]": {"system": "Pseudomonas aeruginosa (ATCC#15442)", "assay": "Microtiter plate synergy test (MIC, Kull synergy index), bacteria, Trypticase Soy Broth", "details": "for MIC: Pseudomonas aeruginosa, read-out: Alone ppm (MIC of compound acting alone); for Alone ppm (MIC of compound acting alone): Ps. aeruginosa, ppm active ingredient", "description": "as §1, §2, §3, §4, §5, §6, §7, §8"}, "[9]": {"system": "Escherichia coli (ATCC#8739)", "assay": "Microtiter plate synergy test (MIC, Kull synergy index), bacteria, Trypticase Soy Broth", "details": "E. coli, ppm active ingredient", "description": "as §1, §2, §3, §9, §10"}}, "note": "Several values for one entry are separate records, joined by “and”; a condition that tells them apart may be missing. Identical values can stand only once. Like-named read-outs stand apart in the source and are kept apart here.", "data": [{"smiles": "CCCCCCCCn1sc(Cl)c(Cl)c1=O", "note": "[DCOIT, 4,5-dichloro-2-n-octyl-4-isothiazolin-3-one]", "values": [{"measurement": "MIC", "setting": "[1]; ATCC58929, 72 h, F. moniliforme, contact time 3 days, ppm active ingredient", "result": 0.28, "unit": "µg/mL"}, {"measurement": "MIC", "setting": "[1]; ATCC58929, 168 h, F. moniliforme, contact time 7 days, ppm active ingredient", "result": 1, "unit": "µg/mL"}, {"measurement": "MIC", "setting": "[2]; ATCC13583, K. pneumoniae, contact time 48 hr, ppm active ingredient", "result": 11, "unit": "µg/mL"}, {"measurement": "MIC", "setting": "[3]; contact time 24 hr", "result": 6, "unit": "µg/mL"}, {"measurement": "MIC", "setting": "[3]; contact time 48 hr", "result": 9, "unit": "µg/mL"}, {"measurement": "MIC", "setting": "[4]; Proteus mirabilis, read-out: Alone ppm (MIC of compound acting alone)", "result": 5, "unit": "µg/mL"}]}, {"smiles": "Cn1sccc1=O", "note": "[MI, 2-methyl-4-isothiazolin-3-one]", "values": [{"measurement": "MIC", "setting": "[5]; Aspergillus niger, ATCC16404, 168 h, read-out: Alone ppm (MIC of compound acting alone)", "result": 200, "unit": "µg/mL"}, {"measurement": "MIC", "setting": "[1]; ATCC58929, 72 h", "result": 200, "unit": "µg/mL"}, {"measurement": "MIC", "setting": "[1]; ATCC58929, 168 h", "result": 200, "unit": "µg/mL"}, {"measurement": "MIC", "setting": "[6]; Candida albicans, ATCC10231, 168 h, read-out: Alone ppm (MIC of compound acting alone)", "result": 25, "unit": "µg/mL"}, {"measurement": "MIC", "setting": "[7]; 72 h", "result": 107, "unit": "µg/mL"}, {"measurement": "MIC", "setting": "[7]; 168 h", "result": 133, "unit": "µg/mL"}, {"measurement": "MIC", "setting": "[2]; ATCC13583, 24 h", "result": 25, "unit": "µg/mL"}, {"measurement": "MIC", "setting": "[8]; ATCC15442, 24 h", "result": 20, "unit": "µg/mL"}, {"measurement": "MIC", "setting": "[8]; ATCC15442, 48 h", "result": 25, "unit": "µg/mL"}]}, {"smiles": "CCCCn1sc2ccccc2c1=O", "note": "[n-BBIT, N-(n-butyl)-1,2-benzisothiazolin-3-one]", "values": [{"measurement": "Alone ppm (MIC of compound acting alone)", "setting": "[5]; contact time 3 days", "result": 28, "unit": "ppm"}, {"measurement": "Alone ppm (MIC of compound acting alone)", "setting": "[5]; contact time 7 days", "result": 53, "unit": "ppm"}, {"measurement": "Alone ppm (MIC of compound acting alone)", "setting": "[1]; F. moniliforme, contact time 3 days, ppm active ingredient", "result": "267 ppm and 444 ppm"}, {"measurement": "Alone ppm (MIC of compound acting alone)", "setting": "[1]; F. moniliforme, contact time 7 days, ppm active ingredient", "result": "533 ppm and 356 ppm and 267 ppm"}, {"measurement": "Alone ppm (MIC of compound acting alone)", "setting": "[6]; C. albicans, contact time 7 days, ppm active ingredient", "result": 124, "unit": "ppm"}, {"measurement": "Alone ppm (MIC of compound acting alone)", "setting": "[7]; contact time 3 days", "result": 711, "unit": "ppm"}, {"measurement": "Alone ppm (MIC of compound acting alone)", "setting": "[7]; contact time 7 days", "result": ">711", "unit": "ppm"}, {"measurement": "Alone ppm (MIC of compound acting alone)", "setting": "[2]; K. pneumoniae, contact time 24 hr, ppm active ingredient", "result": 267, "unit": "ppm"}, {"measurement": "Alone ppm (MIC of compound acting alone)", "setting": "[2]; K. pneumoniae, contact time 48 hr, ppm active ingredient", "result": 267, "unit": "ppm"}, {"measurement": "Alone ppm (MIC of compound acting alone)", "setting": "[8]; contact time 24 hr", "result": 711, "unit": "ppm"}, {"measurement": "Alone ppm (MIC of compound acting alone)", "setting": "[8]; contact time 48 hr", "result": 711, "unit": "ppm"}, {"measurement": "Alone ppm (MIC of compound acting alone)", "setting": "[3]; contact time 24 hr", "result": 36, "unit": "ppm"}, {"measurement": "Alone ppm (MIC of compound acting alone)", "setting": "[3]; contact time 48 hr", "result": 53, "unit": "ppm"}, {"measurement": "Alone ppm (MIC of compound acting alone)", "setting": "[9]; contact time 24 hr", "result": 356, "unit": "ppm"}, {"measurement": "Alone ppm (MIC of compound acting alone)", "setting": "[9]; contact time 48 hr", "result": 533, "unit": "ppm"}, {"measurement": "Alone ppm (MIC of compound acting alone)", "setting": "[4]", "result": 18, "unit": "ppm"}]}]}
